Patent publication US20250064886A1, “CARDIOVASCULAR AND CEREBROVASCULAR DRUG AND USE THEREOF” (HANGZHOU ADAMERCK PHARMLABS INC., priority 2021, published 2025)

Columns and labels:
[1] = tested on: rats with focal cerebral ischemia (MCAO)/reperfusion; assay: Therapeutic administration, cerebral ischemia-reperfusion injury MCAO/R in rats (Example 7); format: in vivo, rat
Experimental: Experimental method: SD rats were randomly divided into 11 groups, including pseudosurgery group, a model control group, positive control drug edaravone via intravenous injection (6 mg/kg, i.v.) group, positive control drug butylphthalide injection via intravenous injection (5 mg/kg, i.v.) group, compound (1) high-dose (24 mg/kg, i.v.), medium-dose (12 mg/kg, i.v.), low-dose (6 mg/kg, i.v.) via intravenous injection group, positive drug butylphthalide soft capsule via intragastric administration (60 mg/kg, i.g.) group, and compound via intragastric administration at (1) high-dose (60 mg/kg, i.g.), medium-dose (30 mg/kg, i.g.), low-dose (15 mg/kg, i.g.) group. A middle cerebral artery occlusion (MCAO) model for cerebral ischemia-reperfusion of male rats was prepared using the internal carotid suture-occluded method with an ischemic time of 90 min followed by reperfusion. Injection and oral administration for once were performed 1 h after reperfusion, and neurobehavioral scoring was performed on rats after 24 h to determine neurological function in rats; the cerebral infarction rate and cerebral water content of rats were determined by 2,3,5-triphenyltetrazolium chloride (TTC) staining.

[2] = tested on: arteriovenous bypass thrombosis in rats; assay: Arteriovenous bypass thrombosis in rats (Example 4); format: in vivo, rat; settings: for Wet weight of thrombus / Dry weight of thrombus: in g (unit assumed)
Experimental: Grouping: Divided into 5 groups, with 10 animals in each group. The model control group was given with solvent, and the test drug compound (1) and the positive control were given intravenously once a day for consecutive 3 d. The modeling started 30 min after the last dose.
Model preparation: 50 SD male rats were anesthetized with sodium pentobarbital at a dose of 60 mg/kg via ip. The rat was fixed in the supine position, and the skin was incised at the midline of the neck; the fascia and muscle tissues were separated, the left common carotid artery and the right external jugular vein were dissociated, and the arterio-venous (A-V) bypass surgery was performed using the polyethylene tubing with a built-in thread. The arterial clip was used to clamp the proximal end of the carotid artery, and one end of the polyethylene tubing was inserted into the artery, and another end was inserted into the vein, thereby completing the bypass surgery. 30 minutes after the last dose, the arterial clip was opened, and blood flowed from the left common carotid artery to the right external jugular vein through the bypass tubing, and the blood flow formed a bypass circulation, and the thrombus was taken out 15 min later.
Detection index: the blood flow was open after 15 min, the thread was taken out, the residual liquid was sucked dry, the thread attached with thrombus was weighed and the wet weight of thrombus was calculated; the dry weight of thrombus was weighed and calculated after bake-drying in the oven at 50° C. Thrombosis inhibition rate was calculated. Tails were clipped at the end of the experiment to detect bleeding time.

[3] = tested on: Erastin-induced neuronal cells; assay: Cell viability (CCK8) of Erastin-induced neuronal cells (Example 8); format: cell-based, rat; settings: Erastin 50 μM
Experimental: (§1) Experimental method: Primary neuron cells were incubated in a medium containing Erastin (final concentration of 50 μM) for 24 hours, and then incubated in a medium containing different concentrations of the test drug and Erastin (final concentration of 50 μM) for another 24 hours. After incubation, Real time PCR was used to detect mRNA expression of GPX4 in each group of cells, CCK8 assay was used to detect cell viability in each group of cells, C11-BODIPY probe method was used to detect intracellular lipid ROS levels in each group of cells, and PGSK probe method was used to detect iron content in cells.
(§2) The experimental data were expressed in means±SD, and statistical differences between groups were determined using one-way ANOVA and Tukey's test, with p-values less than 0.05 considered significant.
After incubation, the CCK8 experiment was used to detect the cell viability of each group of cells. The results were presented as Mean±SD. Compared with control group, ***p<0.0001. Compared with model control group, ^#P<0.05, ^##P<0.01.

[4] = tested on: iron content in Erastin-induced neuronal cells; assay: Iron content (PGSK probe) in Erastin-induced neuronal cells (Example 8); format: cell-based, rat; settings: Erastin 50 μM
Experimental: as §1, §2
After incubation, the PGSK probe method was used to detect the intracellular iron content. The results were presented as Mean±SD. Compared with the control group, ***p<0.0001; Compared with the model group, #p<0.05, ##p<0.01.

[5] = tested on: rats; assay: Bleeding time in rats, tail clipping (Example 4); format: in vivo, rat
Experimental: Grouping: Divided into 5 groups, with 10 animals in each group. […] The modeling started 30 min after the last dose. Detection index: the blood flow was open after 15 min, the thread was taken out, the residual liquid was sucked dry, the thread attached with thrombus was weighed and the wet weight of thrombus was calculated; the dry weight of thrombus was weighed and calculated after bake-drying in the oven at 50° C. Thrombosis inhibition rate was calculated. Tails were clipped at the end of the experiment to detect bleeding time.

Which Behavioral score ([1]; 6 mg/kg i.v. low-dose) does the source give for CC(=O)N[C@H](CSCC1OC2OC3C(CSC[C@@H](NC(C)=O)C(=O)[O-])OC(OC4C(CSC[C@@H](NC(C)=O)C(=O)[O-])OC(OC5C(CSC[C@@H](NC(C)=O)C(=O)[O-])OC(OC6C(CSC[C@@H](NC(C)=O)C(=O)[O-])OC(OC7C(CSC[C@@H](NC(C)=O)C(=O)[O-])OC(OC8C(CSC[C@@H](NC(C)=O)C(=O)[O-])OC(OC9C(CSC[C@@H](NC(C)=O)C(=O)[O-])OC(OC1C(O)C2O)C(O)C9O)C(O)C8O)C(O)C7O)C(O)C6O)C(O)C5O)C(O)C4O)C(O)C3O)C(=O)[O-].[Na+].[Na+].[Na+].[Na+].[Na+].[Na+].[Na+].[Na+] (stereo partly shown) [Compound (1)] here?
Its Behavioral score is 2.13 ± 0.35.

What about the “Cerebral infarction rate (%)” value ([1]; 6 mg/kg i.v. low-dose) of the same compound?
Its value is 30.03 ± 7.79%.

And the “Cerebral water content (%)” value ([1]; 6 mg/kg i.v. low-dose)?
Its value is 82.30 ± 1.04 %.

And the Behavioral score ([1]; 12 mg/kg i.v. medium-dose)?
Its Behavioral score is 1.88 ± 0.35.

What about the “Cerebral infarction rate (%)” value ([1]; 12 mg/kg i.v. medium-dose) of the same compound?
Its value is 16.94 ± 9.52 %.

What about the “Cerebral water content (%)” value ([1]; 12 mg/kg i.v. medium-dose) of the same compound?
Its value is 80.74 ± 0.89 %.

What about the Behavioral score ([1]; 15 mg/kg i.g. low-dose) of the same compound?
The Behavioral score was 2.25 ± 0.71.

And the “Cerebral infarction rate (%)” value ([1]; 15 mg/kg i.g. low-dose)?
The value was 29.49 ± 5.93%.

What about the “Cerebral water content (%)” value ([1]; 15 mg/kg i.g. low-dose) of the same compound?
The value was 82.24 ± 1.49%.

And the Behavioral score ([1]; 24 mg/kg i.v. high-dose)?
Its Behavioral score is 1.62 ± 0.52.

What about the “Cerebral water content (%)” value ([1]; 24 mg/kg i.v. high-dose) of the same compound?
Its value is 79.95 ± 1.16 %.

What about the “Cerebral infarction rate (%)” value ([1]; 24 mg/kg i.v. high-dose, 1 h after reperfusion) of the same compound?
Its value is 11.64 ± 9.38 %.

And the Behavioral score ([1]; 30 mg/kg i.g. medium-dose)?
Its Behavioral score is 2.00 ± 0.53.

And the “Cerebral infarction rate (%)” value ([1]; 30 mg/kg i.g. medium-dose)?
Its value is 21.52 ± 11.04 %.

And the “Cerebral water content (%)” value ([1]; 30 mg/kg i.g. medium-dose)?
The value was 80.61 ± 1.21 %.

What about the Behavioral score ([1]; 60 mg/kg i.g. high-dose) of the same compound?
Its Behavioral score is 1.62 ± 0.52.

And the “Cerebral infarction rate (%)” value ([1]; 60 mg/kg i.g. high-dose)?
Its value is 13.61 ± 10.24 %.

And the “Cerebral water content (%)” value ([1]; 60 mg/kg i.g. high-dose)?
The value was 79.87 ± 1.71 %.

And the “Dry weight inhibition rate (%)” value ([2]; 10 mg/kg i.v.)?
The value was 15.9%.

What about the “Wet weight inhibition rate (%)” value ([2]; 10 mg/kg i.v.) of the same compound?
The value was 19.4%.

What about the “Wet weight of thrombus” value ([2]; 10 mg/kg i.v. once a day 3 d, x ± s, n = 10) of the same compound?
Its value is 0.0254 ± 0.0042.

And the “Dry weight of thrombus” value ([2]; 10 mg/kg i.v. once a day 3 d)?
Its value is 0.0069 ± 0.0014.

And the “Dry weight inhibition rate (%)” value ([2]; 20 mg/kg i.v.)?
Its value is 26.8%.

What about the “Wet weight inhibition rate (%)” value ([2]; 20 mg/kg i.v.) of the same compound?
The value was 21.9%.

What about the “Dry weight of thrombus” value ([2]; 20 mg/kg i.v. once a day 3 d) of the same compound?
The value was 0.006 ± 0.0014.

What about the “Wet weight of thrombus” value ([2]; 20 mg/kg i.v. once a day 3 d) of the same compound?
The value was 0.0246 ± 0.0045.

And the “Dry weight inhibition rate (%)” value ([2]; 40 mg/kg i.v.)?
Its value is 37.8%.

What about the “Wet weight inhibition rate (%)” value ([2]; 40 mg/kg i.v.) of the same compound?
Its value is 34.3%.

What about the “Dry weight of thrombus” value ([2]; 40 mg/kg i.v. once a day 3 d) of the same compound?
The value was 0.0051 ± 0.0011.

And the “Wet weight of thrombus” value ([2]; 40 mg/kg i.v. once a day 3 d)?
Its value is 0.0207 ± 0.0041.

And the “Cell viability (%)” value ([3]; 1 μM, 24 h, control = 100, Mean±SD)?
Its value is 57.01 ± 2.82^ %.

And the “Cell viability (%)” value ([3]; 2.5 μM)?
The value was 61.77 ± 6.56^ %.

And the “Cell viability (%)” value ([3]; 5 μM)?
The value was 65.4 ± 5.81%.

What about the “Cell viability (%)” value ([3]; 10 μM) of the same compound?
Its value is 76.62 ± 5.99^## %.

What about the “Cell viability (%)” value ([3]; 20 μM) of the same compound?
Its value is 80.62 ± 5.39^## %.

What about the “Cell viability (%)” value ([3]; 40 μM) of the same compound?
Its value is 83.43 ± 6.21^## %.

What about the “Iron content (PGSK probe)” value ([4]; 1 μM, control = 100, PGSK fluorescence, weaker = more iron) of the same compound?
Its value is 61.06 ± 7.12.

And the “Iron content (PGSK probe)” value ([4]; 2.5 μM)?
The value was 66.81 ± 7.21.

And the “Iron content (PGSK probe)” value ([4]; 5 μM)?
Its value is 71.85 ± 4.47.

And the “Iron content (PGSK probe)” value ([4]; 10 μM)?
Its value is 77.52 ± 12.88^#.

And the “Iron content (PGSK probe)” value ([4]; 20 μM)?
The value was 82.16 ± 6.86^##.

And the “Iron content (PGSK probe)” value ([4]; 40 μM)?
Its value is 86.69 ± 8.01^##.

What about the “Bleeding time” value ([5]; 10 mg/kg i.v., x ± s, n = 10) of the same compound?
Its value is 403.4 ± 185.1 s.

And the “Bleeding time” value ([5]; 20 mg/kg i.v.)?
The value was 422.6 ± 205.7 s.

What about the “Bleeding time” value ([5]; 40 mg/kg i.v.) of the same compound?
The value was 428.4 ± 185.6 s.

And the “Effect on the bleeding time in rats, in words” value ([5]; intravenous, compared with model control group)?
The value was “no significant effect”.
